Test results taken from ChEMBL document CHEMBL1201862, “PubChem BioAssay data set” (2004).
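48-hour exposure; five concentrations; linearly interpolated endpoints. At the GI50, growth is halved.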 Activity calls are given as the source filed them. No stated cut-off is given here; in the data, active = GI50 up to about 1.1 µM and inactive = higher.

Tests used:
Test in all cases: NCI-60 cell line screen, 48 h
SR = tested on: SR
NCI/ADR-RES = tested on: NCI/ADR-RES
EKVX = tested on: EKVX
MCF7 = tested on: MCF7
SF-295 = tested on: SF-295
SNB-19 = tested on: SNB-19
Malme-3M = tested on: Malme-3M
A549 = tested on: A549
PC-3 = tested on: PC-3
SK-MEL-2 = tested on: SK-MEL-2
HCT-116 = tested on: HCT-116
UO-31 = tested on: UO-31
DU-145 = tested on: DU-145
UACC-257 = tested on: UACC-257
KM12 = tested on: KM12
HT-29 = tested on: HT-29
SF-539 = tested on: SF-539
NCI-H23 = tested on: NCI-H23
NCI-H460 = tested on: NCI-H460
SN12C = tested on: SN12C

Cc1ccc(S(=O)(=O)Oc2coc(CO)cc2=O)cc1
GI50 (SR): 3.82 µM (inactive) | GI50 (NCI/ADR-RES): 22.8 µM (inactive) | GI50 (EKVX): 15.3 µM (inactive) | GI50 (MCF7): 4.7 µM (inactive) | GI50 (SF-295): 16 µM (inactive) | GI50 (SNB-19): 14.6 µM (inactive) | GI50 (Malme-3M): 16.2 µM (inactive) | GI50 (A549): 14.8 µM (inactive) | GI50 (PC-3): 15.1 µM (inactive) | GI50 (SK-MEL-2): 20.3 µM (inactive) | GI50 (HCT-116): 4.25 µM (inactive) | GI50 (UO-31): 14.1 µM (inactive) | GI50 (DU-145): 12.2 µM (inactive) | GI50 (UACC-257): 15.3 µM (inactive) | GI50 (KM12): 4.86 µM (inactive) | GI50 (HT-29): 12.4 µM (inactive) | GI50 (SF-539): 20.2 µM (inactive) | GI50 (NCI-H23): 16.8 µM (inactive) | GI50 (NCI-H460): 14.4 µM (inactive) | GI50 (SN12C): 12.7 µM (inactive)

Cc1ccnc2nc(-c3ccc(Cl)cc3)cc(O)c12
GI50 (SR): 1.41 µM (inactive) | GI50 (NCI/ADR-RES): 3.88 µM (inactive) | GI50 (EKVX): 29.7 µM (inactive) | GI50 (MCF7): 2.94 µM (inactive) | GI50 (SF-295): 4.38 µM (inactive) | GI50 (SNB-19): 19.1 µM (inactive) | GI50 (Malme-3M): 6.81 µM (inactive) | GI50 (A549): 9.08 µM (inactive) | GI50 (PC-3): 2.89 µM (inactive) | GI50 (SK-MEL-2): 72.4 µM (inactive) | GI50 (HCT-116): 4.46 µM (inactive) | GI50 (UO-31): 13.1 µM (inactive) | GI50 (DU-145): 13.5 µM (inactive) | GI50 (UACC-257): > 100 µM (inactive) | GI50 (KM12): 3.16 µM (inactive) | GI50 (HT-29): 3.23 µM (inactive) | GI50 (SF-539): 5.74 µM (inactive) | GI50 (NCI-H23): 6.31 µM (inactive) | GI50 (NCI-H460): 3.85 µM (inactive) | GI50 (SN12C): 8.2 µM (inactive)

O=C(O)C1C2CCC(O2)C1C(=O)NCc1cccnc1 (stereo not given)
GI50 (SR): > 100 µM (inactive) | GI50 (NCI/ADR-RES): > 100 µM (inactive) | GI50 (EKVX): > 100 µM (inactive) | GI50 (MCF7): > 100 µM (inactive) | GI50 (SF-295): > 100 µM (inactive) | GI50 (SNB-19): > 100 µM (inactive) | GI50 (Malme-3M): > 100 µM (inactive) | GI50 (A549): > 100 µM (inactive) | GI50 (PC-3): > 100 µM (inactive) | GI50 (SK-MEL-2): > 100 µM (inactive) | GI50 (HCT-116): > 100 µM (inactive) | GI50 (UO-31): > 100 µM (inactive) | GI50 (DU-145): > 100 µM (inactive) | GI50 (UACC-257): > 100 µM (inactive) | GI50 (KM12): > 100 µM (inactive) | GI50 (HT-29): > 100 µM (inactive) | GI50 (SF-539): > 100 µM (inactive) | GI50 (NCI-H23): > 100 µM (inactive) | GI50 (NCI-H460): > 100 µM (inactive) | GI50 (SN12C): > 100 µM (inactive)

COc1ccc2c(c1)CN([C@@H](C)[C@H]1CC[C@H]3[C@@H]4CC[C@H]5C[C@@H](O)CC[C@]5(C)[C@H]4CC[C@]13C)CO2
GI50 (SR): 0.321 µM (active) | GI50 (NCI/ADR-RES): 3.37 µM (inactive) | GI50 (EKVX): 3.36 µM (inactive) | GI50 (MCF7): 3.7 µM (inactive) | GI50 (SF-295): 1.45 µM (inactive) | GI50 (SNB-19): 1.96 µM (inactive) | GI50 (Malme-3M): 1.53 µM (inactive) | GI50 (A549): 1.76 µM (inactive) | GI50 (PC-3): 2.44 µM (inactive) | GI50 (SK-MEL-2): 1.96 µM (inactive) | GI50 (HCT-116): 2.17 µM (inactive) | GI50 (UO-31): 1.81 µM (inactive) | GI50 (DU-145): 4.68 µM (inactive) | GI50 (UACC-257): 2.2 µM (inactive) | GI50 (KM12): 1.75 µM (inactive) | GI50 (HT-29): 0.964 µM (active) | GI50 (SF-539): 1.59 µM (inactive) | GI50 (NCI-H23): 1.89 µM (inactive) | GI50 (NCI-H460): 1.23 µM (inactive) | GI50 (SN12C): 8.57 µM (inactive)

Cc1ccc(NC(=S)N/N=C2\C(=O)Nc3ccccc32)cc1
GI50 (SR): 87.7 µM (inactive) | GI50 (NCI/ADR-RES): 51.3 µM (inactive) | GI50 (EKVX): 75.9 µM (inactive) | GI50 (MCF7): > 100 µM (inactive) | GI50 (SF-295): 49.9 µM (inactive) | GI50 (SNB-19): > 100 µM (inactive) | GI50 (Malme-3M): > 100 µM (inactive) | GI50 (A549): > 100 µM (inactive) | GI50 (PC-3): > 100 µM (inactive) | GI50 (SK-MEL-2): 97.7 µM (inactive) | GI50 (HCT-116): > 100 µM (inactive) | GI50 (UO-31): 78.5 µM (inactive) | GI50 (DU-145): 4.43 µM (inactive) | GI50 (UACC-257): > 100 µM (inactive) | GI50 (KM12): > 100 µM (inactive) | GI50 (HT-29): > 100 µM (inactive) | GI50 (SF-539): > 100 µM (inactive) | GI50 (NCI-H23): > 100 µM (inactive) | GI50 (NCI-H460): 83 µM (inactive) | GI50 (SN12C): > 100 µM (inactive)

COc1ccc2nc3ccccc3c(NCCCCN(CCCl)CCCl)c2c1
GI50 (SR): 0.04 µM (active) | GI50 (NCI/ADR-RES): 0.448 µM (active) | GI50 (EKVX): 0.535 µM (active) | GI50 (MCF7): 0.202 µM (active) | GI50 (SF-295): 0.0863 µM (active) | GI50 (SNB-19): 0.783 µM (active) | GI50 (Malme-3M): 0.112 µM (active) | GI50 (A549): 0.162 µM (active) | GI50 (PC-3): 0.316 µM (active) | GI50 (SK-MEL-2): 0.703 µM (active) | GI50 (HCT-116): 0.0733 µM (active) | GI50 (UO-31): 0.443 µM (active) | GI50 (DU-145): 0.933 µM (active) | GI50 (UACC-257): 1.05 µM (active) | GI50 (KM12): 0.128 µM (active) | GI50 (HT-29): 0.043 µM (active) | GI50 (SF-539): 0.136 µM (active) | GI50 (NCI-H23): 0.147 µM (active) | GI50 (NCI-H460): < 0.0352 µM (active) | GI50 (SN12C): 0.0843 µM (active)

CN(/N=C/c1ccccc1O)c1ccc2ccccc2n1
GI50 (SR): 19.7 µM (inactive) | GI50 (NCI/ADR-RES): 22.4 µM (inactive) | GI50 (EKVX): 19.8 µM (inactive) | GI50 (MCF7): 2.61 µM (inactive) | GI50 (SF-295): 16.2 µM (inactive) | GI50 (SNB-19): 16.7 µM (inactive) | GI50 (Malme-3M): 21.6 µM (inactive) | GI50 (A549): 16.3 µM (inactive) | GI50 (PC-3): 17.5 µM (inactive) | GI50 (SK-MEL-2): 35.6 µM (inactive) | GI50 (HCT-116): 48.3 µM (inactive) | GI50 (UO-31): 20.8 µM (inactive) | GI50 (DU-145): 20.1 µM (inactive) | GI50 (UACC-257): 52.8 µM (inactive) | GI50 (KM12): 21.3 µM (inactive) | GI50 (HT-29): 29.8 µM (inactive) | GI50 (SF-539): 22.6 µM (inactive) | GI50 (NCI-H23): 17.1 µM (inactive) | GI50 (NCI-H460): 22.9 µM (inactive) | GI50 (SN12C): 32.4 µM (inactive)

CC1=NN(C(=O)CC(=O)Nc2cccc(Cl)c2)C(=O)C1/N=N\c1ccc(S(=O)(=O)c2ccc(/N=N/C3C(=O)N(C(=O)CC(=O)Nc4cccc(Cl)c4)N=C3C)cc2)cc1 (stereo not given)
GI50 (SR): > 100 µM (inactive) | GI50 (NCI/ADR-RES): > 100 µM (inactive) | GI50 (EKVX): > 100 µM (inactive) | GI50 (MCF7): > 100 µM (inactive) | GI50 (SF-295): > 100 µM (inactive) | GI50 (SNB-19): > 100 µM (inactive) | GI50 (Malme-3M): > 100 µM (inactive) | GI50 (A549): > 100 µM (inactive) | GI50 (PC-3): > 100 µM (inactive) | GI50 (SK-MEL-2): > 100 µM (inactive) | GI50 (HCT-116): > 100 µM (inactive) | GI50 (UO-31): > 100 µM (inactive) | GI50 (DU-145): 83.8 µM (inactive) | GI50 (UACC-257): > 100 µM (inactive) | GI50 (KM12): > 100 µM (inactive) | GI50 (HT-29): > 100 µM (inactive) | GI50 (SF-539): 22.6 µM (inactive) | GI50 (NCI-H23): > 100 µM (inactive) | GI50 (NCI-H460): > 100 µM (inactive) | GI50 (SN12C): > 100 µM (inactive)

CC#CC(O)(C(=O)OCCCN(C)C)C1CCCCC1 (stereo not given)
GI50 (SR): > 100 µM (inactive) | GI50 (NCI/ADR-RES): > 100 µM (inactive) | GI50 (EKVX): > 100 µM (inactive) | GI50 (MCF7): > 100 µM (inactive) | GI50 (SF-295): > 100 µM (inactive) | GI50 (SNB-19): > 100 µM (inactive) | GI50 (Malme-3M): > 100 µM (inactive) | GI50 (A549): > 100 µM (inactive) | GI50 (PC-3): > 100 µM (inactive) | GI50 (SK-MEL-2): > 100 µM (inactive) | GI50 (HCT-116): > 100 µM (inactive) | GI50 (UO-31): > 100 µM (inactive) | GI50 (DU-145): > 100 µM (inactive) | GI50 (UACC-257): > 100 µM (inactive) | GI50 (KM12): > 100 µM (inactive) | GI50 (HT-29): > 100 µM (inactive) | GI50 (SF-539): > 100 µM (inactive) | GI50 (NCI-H23): > 100 µM (inactive) | GI50 (NCI-H460): > 100 µM (inactive) | GI50 (SN12C): > 100 µM (inactive)

CCCCCCCCCCCC1=C(O)C(=O)C(CC2=C(O)C(=O)C(CCCCCCCCCCC)=C(O)C2=O)=C(O)C1=O
GI50 (SR): 19.2 µM (inactive) | GI50 (NCI/ADR-RES): > 100 µM (inactive) | GI50 (EKVX): > 100 µM (inactive) | GI50 (MCF7): > 100 µM (inactive) | GI50 (SF-295): 35.2 µM (inactive) | GI50 (SNB-19): 21.1 µM (inactive) | GI50 (Malme-3M): 44 µM (inactive) | GI50 (A549): > 100 µM (inactive) | GI50 (PC-3): > 100 µM (inactive) | GI50 (SK-MEL-2): > 100 µM (inactive) | GI50 (HCT-116): > 100 µM (inactive) | GI50 (UO-31): > 100 µM (inactive) | GI50 (DU-145): > 100 µM (inactive) | GI50 (UACC-257): > 100 µM (inactive) | GI50 (KM12): > 100 µM (inactive) | GI50 (HT-29): > 100 µM (inactive) | GI50 (SF-539): > 100 µM (inactive) | GI50 (NCI-H23): 54.6 µM (inactive) | GI50 (NCI-H460): > 100 µM (inactive) | GI50 (SN12C): > 100 µM (inactive)
